{"source": "patent US20130102009A1", "about": "“SIRTUIN ACTIVATORS AND ACTIVATION ASSAYS” (priority 2010, published 2013)", "key": {"SIRT1(183-664)": {"molecular_target": "T1, SIRT1(183-664) (Homo sapiens, UniProt Q96EB6)", "T1 construct": "the truncated version used for biophysical studies SIRT1(183-664); made in house", "T1 sequence (Q96EB6 183-664)": "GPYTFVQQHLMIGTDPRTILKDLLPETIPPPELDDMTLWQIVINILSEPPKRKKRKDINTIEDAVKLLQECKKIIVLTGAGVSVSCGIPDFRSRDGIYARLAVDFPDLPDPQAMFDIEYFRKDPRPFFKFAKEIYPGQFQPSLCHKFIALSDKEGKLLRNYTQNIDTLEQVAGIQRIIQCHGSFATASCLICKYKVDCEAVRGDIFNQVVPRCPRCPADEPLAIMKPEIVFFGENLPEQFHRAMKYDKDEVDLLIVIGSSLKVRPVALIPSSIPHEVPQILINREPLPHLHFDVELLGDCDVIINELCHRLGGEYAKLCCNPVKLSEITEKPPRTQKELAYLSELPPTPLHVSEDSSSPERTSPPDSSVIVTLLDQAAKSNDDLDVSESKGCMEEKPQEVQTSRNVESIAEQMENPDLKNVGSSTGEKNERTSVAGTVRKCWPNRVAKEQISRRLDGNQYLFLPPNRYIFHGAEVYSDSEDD", "assay": "ITC binding of STACs to SIRT1(183-664)", "conditions": "dissociation constant of SRT:SIRT1 complex, read-out: Kx (μM), ITC", "procedure": "All peptides were prepared by BioPeptide (San Diego, Calif.) and shown to be at least 95% pure by analytical HPLC analysis. Bovine glutamate dehydrogenase (GDH), α-ketoglutarate, NADH and NAD^+ were from Sigma Chemical Company. Full-length, human SIRT1 and the truncated version used for biophysical studies SIRT1(183-664) were prepared as described previously, and shown to have equivalent kinetic properties (Milne et al. (2007) Nature 450, 712-716). The nicotinamidase PNC1 was prepared as described by Denu and colleagues (Smith et al. (2009) Anal Biochem 394, 101-109). ITC experiments were performed using either a VP-ITC system or iTC200 system (MicroCal) at 26° C. in a buffer composed of 137 mM NaCl, 2.7 mM KCl, 1 mM MgCl2, 2 mM TCEP, 5% (v/v) glycerol and 50 mM HEPES-NaOH, pH 7.3. SIRT1(183-664) was purified and dialyzed against the buffer, centrifuged, and degassed before the experiment. The peptide and compounds were dissolved in the final dialysis buffer and their pH values were adjusted to match that of the protein solution. […] To characterize this interaction using the iTC200 system, 1 mM TAMRA-peptide was injected in 20 aliquots of 2 μL, (except the first injection, which was 0.5 μL) into a 0.202 mL sample cell containing 100 μM STAC. For STACs with poor solubility, the concentrations were adjusted accordingly. […] To characterize the interaction of a STAC with SIRT1(183-664) on the VP-ITC system, 100 μM enzyme was injected in 35 aliquots of 8 μL, (except the first injection, which was 2 μL) into a 1.47 mL sample cell containing 10 μM STAC. […] In all cases, data was corrected for the heat of dilution and fitted using a nonlinear least-squares routine using a single-site binding model with Origin for ITC v7.0383 (Microcal) with the stoichiometry (n), the enthalpy of the reaction (ΔH) and the association constant (Ka) calculated."}, "SIRT1": {"molecular_target": "T2, SIRT1 (Homo sapiens, UniProt Q96EB6)", "T2 sequence (Q96EB6 1-747)": "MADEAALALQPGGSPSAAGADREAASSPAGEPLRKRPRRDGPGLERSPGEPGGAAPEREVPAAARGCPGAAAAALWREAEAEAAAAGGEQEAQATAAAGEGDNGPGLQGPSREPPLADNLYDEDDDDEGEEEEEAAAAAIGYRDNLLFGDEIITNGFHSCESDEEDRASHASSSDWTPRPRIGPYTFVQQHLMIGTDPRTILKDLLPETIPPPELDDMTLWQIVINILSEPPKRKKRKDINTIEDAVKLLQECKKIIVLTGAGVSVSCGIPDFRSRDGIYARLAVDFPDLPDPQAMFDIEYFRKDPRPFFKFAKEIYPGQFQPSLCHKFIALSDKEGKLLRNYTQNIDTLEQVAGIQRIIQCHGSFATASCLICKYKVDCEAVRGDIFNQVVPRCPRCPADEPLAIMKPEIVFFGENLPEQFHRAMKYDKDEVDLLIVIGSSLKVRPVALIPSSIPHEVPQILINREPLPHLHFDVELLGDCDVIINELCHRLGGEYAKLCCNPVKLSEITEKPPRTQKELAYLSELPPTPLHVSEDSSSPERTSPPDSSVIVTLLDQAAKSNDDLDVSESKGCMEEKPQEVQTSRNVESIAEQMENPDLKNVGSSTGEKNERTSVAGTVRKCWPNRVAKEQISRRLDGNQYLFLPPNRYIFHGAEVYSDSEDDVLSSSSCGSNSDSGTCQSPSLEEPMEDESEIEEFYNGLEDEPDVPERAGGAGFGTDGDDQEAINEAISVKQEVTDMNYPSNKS", "assay": "Fits of SIRT1 activation data (TAMRA-peptide) to kinetic models: Michaelis-Menten, eq (5), eq (9)", "type": "biochemical", "conditions": "for Vmax,app: data of Milne et al. fit to Michaelis-Menten equation", "text": "The rate law for the mechanism of FIG. 2A can be derived starting with the expression of eq (4), which was derived using the rapid equilibrium assumption. To express the rate law in terms of total and free substrate, eq (4) can be […] show in eq (5). This derivation will be complete if we can express [S] in terms of [S]o, [X]o, and Kd. This starts with the definition of Kd, given in eq (6): The rate law for the mechanism of FIG. 2B can be derived using the rapid equilibrium assumption and is given in eq (9). […] To determine if the mechanism of FIG. 2A could accommodate such an activator, we fit the activation titration curve reported in Milne et al. ((2007) Nature 450, 712-716) to the expression of eq (5). This curve is reproduced in FIG. 7A. […] In this fitting, the following constraints were used: […] If the mechanism of FIG. 2A obtains for SRT1460, parameter estimates from the two types of experiment must be the same. […] Enzyme allostery can account for the activation of the SIRT1-Catalyzed deacetylation of TAMRA-Peptide by SRT1460 When the rate law for the allosteric mechanism of activation, is used to fit the data of FIG. 7B the following best-fit parameters are obtained: Kx=8.7±0.8 μM, β=0.26±0.02, and γ=1.48±0.04. The lines drawn using eq (9) and these parameters show an excellent fit to the data. These lines superimpose on those drawn from the individual fits and the parameter estimates of Table 5."}}, "note": "Where “and” joins values, the source holds several entries; their conditions need not be identical. Equal values may be shown once. Where a name gives a salt, the structure may show the parent alone. Read-outs that look alike come from different tables or passages of the source.", "data": [{"smiles": "CN(C)Cc1cnc2sc(-c3ccccc3NC(=O)c3cnc4ccccc4n3)nc2c1", "note": "[Compound 2, N-(2-(6-((dimethylamino)methyl)thiazolo[5,4-b]pyridin-2-yl)phenyl)quinoxaline-2-carboxamide]", "values": [{"measurement": "Kd", "setting": "SIRT1(183-664)", "value": 0.32, "unit": "µM"}]}, {"smiles": "Cc1nc(-c2cccnc2)sc1C(=O)Nc1ccccc1-c1cn2c(CN3CC4CC3CN4)csc2n1", "note": "(stereo not drawn) [Compound 4, N-(2-(3-(2,5-diazabicyclo[2.2.1]heptan-2-ylmethyl)imidazo[2,1-b]thiazol-6-yl)phenyl)-4-methyl-2-(pyridin-3-yl)thiazole-5-carboxamide]", "values": [{"measurement": "Kd", "setting": "SIRT1(183-664)", "value": 3, "unit": "µM"}]}, {"smiles": "CCCCc1nc(NC2CCNCC2)cc(C(=O)Nc2ccccc2-c2nc3cc(COC4CCNCC4)cnc3s2)n1", "note": "[Compound 10, 2-butyl-6-(piperidin-4-ylamino)-N-(2-(6-((piperidin-4-yloxy)methyl)thiazolo[5,4-b]pyridin-2-yl)phenyl)pyrimidine-4-carboxamide]", "values": [{"measurement": "γ, best fit of activator titration curve to eq (5) (indirect mechanism of FIG. 2A)", "setting": "SIRT1; [S]o and Km constrained", "value": "0.69±0.08"}]}, {"smiles": "CN(C)CCCNc1cc(-c2nc3c(NC(=O)c4ccc(CN5CCNCC5)cc4)cccc3[nH]2)ccn1", "note": "[Compound 14, N-(2-(2-(3-(dimethylamino)propylamino)pyridin-4-yl)-1H-benzo[d]imidazol-4-yl)-4-(piperazin-1-ylmethyl)benzamide trihydrochloride]", "values": [{"measurement": "Kd", "setting": "SIRT1(183-664)", "value": 0.43, "unit": "µM"}]}, {"smiles": "COc1cc(C(=O)Nc2ccccc2-c2cn3c(CN4CCNCC4)csc3n2)cc(OC)c1OC", "note": "[SRT1460]", "values": [{"measurement": "γ, global fit of velocity vs substrate data at fixed activator concentrations (FIG. 7B) to eq (5)", "setting": "SIRT1; Kd assigned 140 μM, data of Milne et al.", "value": "1.53±0.07 and 1.53"}, {"measurement": "Km", "setting": "SIRT1; Kd assigned 140 μM, data of Milne et al., read-out: Km,x, global fit of velocity vs substrate data at fixed activator concentrations (FIG. 7B) to eq (5)", "value": "1000 ± 100", "unit": "nM"}, {"measurement": "Km", "setting": "SIRT1; Kd, [S]o and Km constrained, read-out: Km,x, best fit of activator titration curve to eq (5) (indirect mechanism of FIG. 2A)", "value": 90, "unit": "nM"}, {"measurement": "Vmax,app", "setting": "SIRT1; [SRT1460] 3 μM", "value": 11, "unit": "units"}, {"measurement": "Vmax,app", "setting": "SIRT1; [SRT1460] 11 μM", "value": 12, "unit": "units"}, {"measurement": "Vmax,app", "setting": "SIRT1; [SRT1460] 37 μM", "value": 14, "unit": "units"}, {"measurement": "γ, best fit of activator titration curve to eq (5) (indirect mechanism of FIG. 2A)", "setting": "SIRT1; [S]o and Km constrained", "value": "0.20 and 0.20 ± 0.01"}, {"measurement": "Km", "setting": "SIRT1; [S]o and Km constrained, read-out: Km,x, best fit of activator titration curve to eq (5) (indirect mechanism of FIG. 2A)", "value": 90, "unit": "nM"}, {"measurement": "Kx, best fit of FIG. 7B data to allosteric rate law eq (9)", "setting": "SIRT1; data of Milne et al.", "value": "8.7 ± 0.8", "unit": "µM"}, {"measurement": "β, best fit of FIG. 7B data to allosteric rate law eq (9)", "setting": "SIRT1; data of Milne et al.", "value": "0.26±0.02"}, {"measurement": "γ, best fit of FIG. 7B data to allosteric rate law eq (9)", "setting": "SIRT1; data of Milne et al.", "value": "1.48±0.04"}]}]}
